{"source": "patent US9469878B2", "about": "“Methods of treating cancer comprising targeting NQO1” (The Board of Regents of the University of Texas System, priority 2010, dated 2016)", "key": {"H2185": {"system": "H2185", "design": "LD50 β-Lap + CAT: unit not given beside the values", "protocol": "(§1) Cells were cultured and treated as described above. […] Experiments were repeated at least three times, and data expressed as relative survival (treated/control×100%) means±SEM. […] The multi-target model was used to describe the shape of relative survival curves. In this model, a final slope (D0) resulting from multiple-event killing and quasithreshold (Dq) doses were used to represent the size or width of the shoulder of the curve. The extrapolation number (n) is also a measure of the width of the shoulder. The three parameters, n, Do, and Dq were related by the expression: loge n=Dq/Do.\n(§2) Cells were treated with β-lap with or without dicoumarol for 2 h. […] Data were expressed as relative survival (treated/control×100%). Experiments were repeated at least three times, and data expressed as relative survival means±SEM. […] Human mammary epithelial cells were plated in 48 well dishes in growth media containing a 50:50 mixture of MGEM/DME:F12 medium supplemented with insulin, human epidermal growth factor and hydrocortisone."}, "HCC1937": {"system": "HCC1937", "design": "LD50 β-Lap + CAT: unit not given beside the values", "protocol": "as §1, §2"}, "HTB122": {"system": "HTB122", "design": "LD50 β-Lap + CAT: unit not given beside the values", "protocol": "as §1, §2"}, "HTB24": {"system": "HTB24", "design": "LD50 β-Lap + CAT: unit not given beside the values", "protocol": "as §1, §2"}, "MCF-7": {"system": "MCF-7", "design": "LD50 β-Lap + CAT: unit not given beside the values", "protocol": "as §1, §2"}, "ZR751": {"system": "ZR751", "design": "LD50 β-Lap + CAT: unit not given beside the values", "protocol": "as §1, §2"}, "[1]": {"system": "HMEC 1585 normal human mammary epithelial cells", "protocol": "as §1, §2"}, "NQO1 [2]": {"target": "T1, NQO1 (Homo sapiens, UniProt P15559, R139W)", "T1 construct": "S9 Supernatants were prepared from cells in mid-log to late log phase growth; endogenous in cells; host or cells: cancer cell lines, mostly from a non-small cell lung cancer panel (e.g. Calu-3); S9 supernatants", "T1 sequence (P15559 whole entry R139W)": "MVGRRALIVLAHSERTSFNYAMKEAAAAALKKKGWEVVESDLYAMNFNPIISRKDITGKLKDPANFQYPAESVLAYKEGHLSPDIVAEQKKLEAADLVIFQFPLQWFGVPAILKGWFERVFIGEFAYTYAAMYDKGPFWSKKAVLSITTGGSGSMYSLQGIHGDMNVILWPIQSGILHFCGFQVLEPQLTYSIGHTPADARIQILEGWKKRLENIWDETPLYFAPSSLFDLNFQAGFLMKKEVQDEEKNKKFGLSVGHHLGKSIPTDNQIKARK", "experiment": "NQO1 enzyme assays using β-lapachone or the standard menadione substrates", "format": "biochemical", "settings": "β-lapachone as substrate", "protocol": "(§3) S9 Supernatants were prepared from cells in mid-log to late log phase growth. […] The cell suspensions were sonicated on ice four times, using 10-s pulses, and then centrifuged at 14,000×g for 20 min. The S9 supernatants were aliquoted into microcentrifuge tubes and stored at −80° C. until used. A 1× protease inhibitor cocktail was added to prevent enzyme activity degradation. […] Menadione was used as the electron acceptor. NADH was used as the electron donor.\n(§4) NQO1 activity was measured using NADH (200 μM) as the immediate electron donor and menadione (10 μM) as the intermediate electron acceptor. […] Biochem. Biophys. […] NADH: cytochrome b5 reductase was measured using NADH (200 μM) as the electron donor, and […] was measured using NADPH (200 μM) as electron donor (45) in a Beckman DU 640 spectrophotometer (Beckman Coulter, Fullerton, Calif.). Reactions were carried out at 37° C. and were initiated by the addition of S9 supernatants. Varying amounts of supernatants, from 10 to 40 μL, were used to ensure linearity of rates with protein concentration. […] Results shown are the average enzyme activity for three separate cell extractions±S.D. or both values from duplicate experiments.\n(§5) Cell lines, mostly from a 5-panel nonsmall cell lung cancer panel from the UT Southwestern SPORE, were assessed for NQO1 polymorphism status and then monitored for NQO1 enzyme assays using β-lapachone or the standard menadione substrates. […] NQO1*2/*2 and *3/*3 polymorphisms were detected from NQO1 *1/*1 wild-type sequences by PCR-RFLP. Genomic DNA was extracted from the cells using Qiagen spin columns. Using previously described oligonucleotide primers, PCR products underwent gel electrophoresis. Final genotyping was determined based on the size and pattern of separated bands diagnostic for *1/*1 (wild-type), or polymorphic *2/*2 or *3/*3 NQO1 polymorphisms."}, "NQO1 [3]": {"system": "NQO1", "experiment": "NQO1 enzyme assays using β-lapachone or the standard menadione substrates", "format": "biochemical, human", "settings": "β-lapachone as substrate, HCC44 *1/*2", "protocol": "as §3, §4, §5"}, "PC-3 cells": {"system": "PC-3 cells", "experiment": "Alkaline comet assay", "format": "cell-based, human", "settings": "PC-3 cells after exposure to 4 μM β-lap", "protocol": "DNA lesions, including total base damage, DSBs and SSBs, versus DSBs were assessed using single-cell gel electrophoretic comet assays under alkaline or neutral conditions, respectively (TREVIGEN, Gaithersburg, Md.). Slides were stained with SYBR Green and visualized using a Nikon Eclipse TE2000-E fluorescence microscope (Melville, N.Y.). Digital photomicrographs were taken and comet tail lengths quantified using NIH Image J software. Each datum point represents an average of 100 cells±SE, and data are representative of experiments performed in triplicate."}, "PARP1 in 231-NQ+ cells": {"system": "PARP1 in 231-NQ+ cells", "experiment": "PAR formation (PARP1 hyperactivation), Western blot", "format": "cell-based, human", "settings": "after 2 μM β-lap"}, "[4]": {"system": "Human (shown) or mouse rbs", "experiment": "Hemolysis of red blood cells", "format": "cell-based", "settings": "rbs incubated with HPβCD alone, HPβCD-β-lap, or β-lap alone in DMSO", "protocol": "Human (shown) or mouse rbs were incubated with HPβCD alone or HPβCD-β-lap, or β-lap alone in DMSO."}, "[5]": {"experiment": "β-Lap pharmacokinetic (PK) analyses", "format": "in vivo", "settings": "athymic nude mice, plasma ng/mL, organs ng/g", "source_text": "FIG. 27 depicts correlative studies of NQO1 expression and β-lap, a bioactivatable drug. (a) NQO1 activity assay (reported as nMoles cyt-c/min/μg protein) in paired tumor (T) and associated normal tissue (N) from human NSCLC patient samples. NQO1 activity was not detectable in normal lung tissue. (b) β-Lap pharmacokinetic (PK) analyses in athymic nude mice. Black circles denote plasma concentrations (ng/mL); other colors denote various organ/tumor concentrations (ng/g). […] (c) NQO1 expression by immunohistochemistry (IHC). Arrowhead denotes NQO1+ prostate cancer cells. Arrow denotes normal prostate gland tissue that have low, or no, detectable NQO1 protein levels."}}}
{"smiles": "CC1(C)CCC2=C(O1)c1ccccc1C(=O)C2=O", "note": "[β-Lap, 3,4-dihydro-2,2-dimethyl-2H-naphtho[1,2-b]pyran-5,6-dione]", "values": [{"measurement": "LD50 β-Lap + CAT", "setting": "H2185", "value": 2.6}, {"measurement": "LD50 p-Lap + DIC", "setting": "H2185; human", "value": 6.4}, {"measurement": "LD50 β-Lap", "setting": "H2185; human", "value": 1.3}, {"measurement": "LD50 β-Lap + CAT", "setting": "HCC1937", "value": 3.4}, {"measurement": "LD50 p-Lap + DIC", "setting": "HCC1937; human", "value": 5.0}, {"measurement": "LD50 β-Lap", "setting": "HCC1937; human", "value": 2.2}, {"measurement": "LD50 β-Lap + CAT", "setting": "HTB122", "value": 2.8}, {"measurement": "LD50 p-Lap + DIC", "setting": "HTB122; human", "value": 5.5}, {"measurement": "LD50 β-Lap", "setting": "HTB122; human", "value": 1.5}, {"measurement": "LD50 β-Lap + CAT", "setting": "HTB24", "value": 3.5}, {"measurement": "LD50 p-Lap + DIC", "setting": "HTB24; human", "value": 6.2}, {"measurement": "LD50 β-Lap", "setting": "HTB24; human", "value": 1.5}, {"measurement": "LD50 β-Lap + CAT", "setting": "MCF-7", "value": 4.8}, {"measurement": "LD50 p-Lap + DIC", "setting": "MCF-7; human", "value": 9.0}, {"measurement": "LD50 β-Lap", "setting": "MCF-7; human", "value": 1.7}, {"measurement": "LD50 β-Lap + CAT", "setting": "ZR751", "value": 3.2}, {"measurement": "LD50 p-Lap + DIC", "setting": "ZR751; human", "value": 6.8}, {"measurement": "LD50 β-Lap", "setting": "ZR751; human", "value": 1.4}, {"measurement": "LD50 β-Lap", "setting": "[1]", "value": ">10"}, {"measurement": "NQO1 activity, β-Lap", "setting": "NQO1 [2]; Calu-3/NSCLC *3/*3", "value": "243 ± 2", "unit": "nmol/min/µg"}, {"measurement": "NQO1 activity, β-Lap", "setting": "NQO1 [2]; H2009/NSCLC *3/*3", "value": "120 ± 3", "unit": "nmol/min/µg"}, {"measurement": "NQO1 activity, β-Lap", "setting": "NQO1 [2]; HCC1171/NSCLC *3/*3", "value": "369 ± 9", "unit": "nmol/min/µg"}, {"measurement": "NQO1 activity, β-Lap", "setting": "NQO1 [2]; T47D/BreastCancer *3/*3", "value": "138 ± 3", "unit": "nmol/min/µg"}, {"measurement": "NQO1 activity, β-Lap", "setting": "NQO1 [3]", "value": "879 ± 14", "unit": "nmol/min/µg"}, {"measurement": "IR dose equivalent to DNA lesions by alkaline assays", "setting": "PC-3 cells", "value": 20, "unit": "Gy"}, {"measurement": "Time of peak PAR formation", "setting": "PARP1 in 231-NQ+ cells", "value": 30, "unit": "min"}, {"measurement": "Hemolysis", "setting": "[4]", "value": "hemolysis by HPβCD and not β-lapachone"}, {"measurement": "Organ/tumor concentrations", "setting": "[5]", "value": "elevated levels of the drug in lung"}]}
